The numbers were not newly measured in patent US20250367137A1, “Phloroglucinol Formulations And Methods Of Use” (priority 2022, published 2025), which cites them from elsewhere.

The data set deals with irritable bowel syndrome (IBS) sufferers. The settings on record: placebo-controlled trials.

`Oc1cc(O)cc(O)c1` [phloroglucinol]: the “improvement in pain and stool frequency” value was “statistically significant improvement”.
